# According to patent publication US20150164762A1, “USE OF ETHANOLAMINE PHOSPHATE” (priority 2012, published 2015):
# How the values were obtained:
# [1] = tested on: A549; experiment: WST-8 proliferation test, A549 cancer cells; assay type: cell-based, human; settings: 0% FBS, 96 hours, even at high concentrations
# Protocol: 0% FBS RPMI-1640 was used as the medium. 24 hours after seeding the cells were washed with 20 μl per well of PBS, and the medium was replaced with 0% FBS RPMI-1640. Following medium replacement, EP solution with 10 times the set concentration was added 10 μl per well, and a proliferation test (WST-8 assay) was performed 96 hours after addition of EP.
# [2] = tested on: HEKa cells; experiment: Transepithelial electrical resistance (TER), HEKa; assay type: cell-based, human; settings: 1 mM EP
# Protocol: HEKa cells were seeded to 6×10^4 cells/cm^2 on a cell culture insert (353104, BD Falcon). Culture was performed in complete medium consisting of HKGS Kit (S-001-K, Invitrogen) added to Epilife basal medium (M-EPI-500-CA, Invitrogen), and once confluence was reached, a medium containing […] the specific compounds listed under Conditions 1 to 3 above was substituted for the complete medium, and medium replacement was performed once a day. TER was measured as in Example 11.
# [3] = tested on: BEAS-2B; experiment: Suppression of the proliferative effect of EP by a MEK 1/2 inhibitor (WST-8); assay type: cell-based, human; settings: 250 μM EP, no MEK 1/2 inhibitor, 0.1% FBS, 72 hours
# [4] = tested on: NHLF cells; experiment: WST-8 proliferation test, primary normal human lung fibroblasts (NHLF); assay type: cell-based; settings: 0% FBS DMEM, 124 hours
# Source text: 10% FBS-DMEM was used as the medium.
# [5] = tested on: IL-8; experiment: ELISA of IL-8 secreted from THP-1 cells, with or without LPS; assay type: cell-based, human
# Protocol: (§1) Human monocytic cultured THP-1 cells were cultured logarithmically as follows in 10% FBS RPMI-1640 growth culture. Cells were seeded to 4×10^5/ml on a 24-well plate (500 μl/well), additional growth culture containing EP was added, and finally the EP concentration was adjusted to the target concentration (0.1 mM, 1 mM). 2 hours after EP administration, further growth medium containing lipopolysaccharides (LPS) was added, and adjusted to concentrations of 0.1 μg/ml and 1 μg/ml.
# (§2) 4 hours and 24 hours after lipopolysaccharide administration, the medium was collected, the cells were precipitated by centrifugation, and the supernatant was used as an ELISA sample. As in the Singh et al. report, the inflammatory cytokine TNF-α and the chemokine IL-8, which attracts inflammatory cells, were used as ELISA measurement indicators.
# [6] = tested on: HL-60; experiment: WST-8 proliferation test, HL-60 floating cells; assay type: cell-based, human; settings: 0% FBS, 72 hours, even at high concentrations
# Protocol: THP-1 (human acute monocytic leukemia cells) and HL-60 (human myeloid leukemia cells) were logarithmically growth cultured in 10% FBS RPMI-1640 to 2 to 10×10^5 cells/cm^2 to achieve logarithmic growth before EP administration. The cell culture liquid was then centrifuged and precipitated at 1000 rpm, and 90 μl per well was dispensed onto a 96-well plate to 2×10^4 cells/cm^2 in 0% FBS RPMI-1640. […] For the WST-8 assay of the floating cells, 10 μl per well of WST-8 assay reagent was added directly to the cell suspension during culture, and after 1 hour absorbance at 450 nm and 600 nm was measured with a plate reader and the data were analyzed as in the examples above.
# [7] = tested on: TNF-α; experiment: ELISA of TNF-α secreted from THP-1 cells, with or without LPS; assay type: cell-based, human
# Protocol: as §1, §2
# [8] = tested on: BEAS-2B; experiment: Cell toxicity of H2O2 after EP pre-treatment (WST-8 assay); assay type: cell-based, human
# Protocol: Cells of the normal airway epithelial cell line BEAS-2B were seeded at a density of 1×10^5/cm^2 on a 96-well plate, and after 24 hours the medium was replaced with 0.5% FBS RPMI 1640 containing EP at final concentrations of 0, 250 and 500 μM. 24 hours after medium replacement the medium was replaced with 0.5% FBS RPMI-1640, and serially diluted H2O2 was administered (n=4). 24 hours after H2O2 administration a cell toxicity test WST-8 assay (Cell Counting Kit-8, Dojindo) was performed. For the data analysis, the 50% cell death concentration EC50 was calculated with GraphPad Prism 5 statistical analysis software.
# [9] = tested on: BEAS-2B; experiment: Transepithelial electrical resistance (TER), BEAS-2B; assay type: cell-based, human; settings: EP 1 mM, 1% FBS
# Protocol: Cells of the established normal human airway epithelial cell line BEAS-2B were seeded to 1×10^5 cells/cm^2 on a cell culture insert (353104, BD Falcon) (FIG. 14). 10% FBS RPMI-1640 was used as the medium. The amount of medium was 200 μl on the insert side and 750 μl on the well side. Beginning the next day, substitution/medium replacement was performed once a day with 1% FBS RPMI-1640 prepared with the following 4 reagent conditions, and transepithelial electrical resistance (TER) was measured with MilliCell (Millipore). • Condition 1: Control • Condition 2: EP 1 mM • Condition 3: Dexamethasone 1 μM (dexamethasone (Dex): positive control substance known to enhance barrier function) • Condition 4: EP 1 mM and Dex 1 μM
# [10] = tested on: BEAS-2B; experiment: Proliferative effects of EP and its metabolic derivatives (WST-8); assay type: cell-based, human; settings: 0.1% FBS, 72 hours
# [11] = 4 hours and 24 hours of stimulus, EP 0.1 mM, 1 mM
# [12] = cells not treated with LPS, 26 hours, 1 mM EP
smiles,measurement,setting,value
"NCCOP(=O)(O)O [EP, Ethanolamine phosphate]",cell proliferation ability,[1],absolutely no cell proliferation ability
same,rise in TER value relative to the control,[2],2.3 fold
same,cell proliferation,[3],roughly 3 fold
same,growth-stimulating effect,[4],growth-stimulating effect
same,secretion of LPS-induced IL-8,[5]; [11],dose-dependently suppressed
same,"IL-8 secretion, reduced to % of untreated",[5]; [12],about 43%
same,cell proliferation ability,[6],absolutely no cell proliferation ability
same,secretion of LPS-induced TNF-α,[7]; [11],dose-dependently suppressed
same,amount of TNF-α induced by LPS stimulus,"[7]; LPS 1 μg/ml, 24 hours of stimulus, EP 1 mM",about 70 pg/ml
same,"TNF-α secretion, reduced to % of untreated",[7]; [12],about 78%
same,Toxity reduction rate % (H2O2 cytotoxicity),[8]; EP pre-treatment 250 uM,33%
same,Toxity reduction rate % (H2O2 cytotoxicity),[8]; EP pre-treatment 500 uM,28%
same,reduction of the cytotoxicity of H2O2,[8]; pre-treatment with 250 to 500 μM of EP,about 30%
same,increase in TER,[9],49%
same,proliferative action,[10],dose-dependent proliferative action
